Experimental data as given in US12187706B2, “NLRP3 modulators” (INNATE TUMOR IMMUNITY, INC., priority 2019, dated 2025).

How the values were obtained:
human TLR7 = target: T1, human TLR7 (Homo sapiens, UniProt Q9NYK1); experiment: In vitro human TLR7 reporter assay (HEK-Blue, NF-kB/AP1-inducible SEAP); format: cell-based; conditions: at 50 μM
T1 construct: host or cells: human HEK-Blue cells with NF-kB/AP1-inducible SEAP reporter
T1 sequence (Q9NYK1 27-1049): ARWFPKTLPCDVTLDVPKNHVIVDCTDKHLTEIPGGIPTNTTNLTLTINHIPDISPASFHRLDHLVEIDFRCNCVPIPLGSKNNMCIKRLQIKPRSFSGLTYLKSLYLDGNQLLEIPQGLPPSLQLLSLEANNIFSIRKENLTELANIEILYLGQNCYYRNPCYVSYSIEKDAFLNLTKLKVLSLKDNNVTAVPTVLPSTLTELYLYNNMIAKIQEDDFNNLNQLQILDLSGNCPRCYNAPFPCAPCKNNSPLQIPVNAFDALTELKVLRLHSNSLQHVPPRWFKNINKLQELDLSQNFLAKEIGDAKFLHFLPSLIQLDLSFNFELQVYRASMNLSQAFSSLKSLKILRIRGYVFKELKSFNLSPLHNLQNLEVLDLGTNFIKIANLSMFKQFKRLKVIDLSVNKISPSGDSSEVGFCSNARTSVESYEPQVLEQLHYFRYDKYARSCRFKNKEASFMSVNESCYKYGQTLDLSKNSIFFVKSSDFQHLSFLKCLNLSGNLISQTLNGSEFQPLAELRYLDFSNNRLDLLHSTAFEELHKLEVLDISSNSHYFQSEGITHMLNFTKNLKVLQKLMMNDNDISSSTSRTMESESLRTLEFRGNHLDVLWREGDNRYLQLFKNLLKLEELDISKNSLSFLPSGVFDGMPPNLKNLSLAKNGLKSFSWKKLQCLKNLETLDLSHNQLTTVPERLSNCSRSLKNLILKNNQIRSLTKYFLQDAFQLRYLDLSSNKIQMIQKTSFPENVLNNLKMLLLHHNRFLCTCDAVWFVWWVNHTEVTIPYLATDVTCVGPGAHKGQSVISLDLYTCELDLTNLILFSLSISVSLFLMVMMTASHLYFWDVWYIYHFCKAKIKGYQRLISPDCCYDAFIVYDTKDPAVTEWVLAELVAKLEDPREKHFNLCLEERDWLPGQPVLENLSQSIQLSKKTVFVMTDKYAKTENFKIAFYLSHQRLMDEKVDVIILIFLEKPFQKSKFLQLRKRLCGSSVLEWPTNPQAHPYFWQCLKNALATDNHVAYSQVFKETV
Procedure: In Vitro Human TLR7 and TLR8 Binding Reporter Assays Logarithmically-growing human HEK-Blue cells co-expressing a TLR7 or TLR8 gene and a NF-kB/AP1-inducible SEAP (secreted embryonic alkaline phosphatase; […] Cellular SEAP production is measured using an Envision plate reader instrument thirty minutes after adding freshly-made Quanti-Blue reagent (prepared by following manufacturer instructions; Invivogen, San Diego, CA) to the HEK-Blue TLR Nf-kB-SEAP cell reactions. All EC50 values (half-maximal effective concentration) are determined using proprietary data analysis software.

NLRP3 = target: T2, NLRP3 (Homo sapiens, UniProt Q96P20); experiment: Measurement of IL-1β production in PMA-differentiated THP-1 cells (NLRP3 hIL1B); format: cell-based
T2 construct: host or cells: PMA-differentiated THP-1 cells
Outline: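 THP-1 cells differentiated with PMA, then replated in RPMI with 2% FBS and exposed to compound for 4 h (alternative: 2 h; hTRF protocol: 2 h at 37 °C, top concentration 10 μM). Supernatant IL-1β was quantified by ELISA or HTRF. Final DMSO 1%, with vehicle control.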

T2 sequence (Q96P20 whole entry): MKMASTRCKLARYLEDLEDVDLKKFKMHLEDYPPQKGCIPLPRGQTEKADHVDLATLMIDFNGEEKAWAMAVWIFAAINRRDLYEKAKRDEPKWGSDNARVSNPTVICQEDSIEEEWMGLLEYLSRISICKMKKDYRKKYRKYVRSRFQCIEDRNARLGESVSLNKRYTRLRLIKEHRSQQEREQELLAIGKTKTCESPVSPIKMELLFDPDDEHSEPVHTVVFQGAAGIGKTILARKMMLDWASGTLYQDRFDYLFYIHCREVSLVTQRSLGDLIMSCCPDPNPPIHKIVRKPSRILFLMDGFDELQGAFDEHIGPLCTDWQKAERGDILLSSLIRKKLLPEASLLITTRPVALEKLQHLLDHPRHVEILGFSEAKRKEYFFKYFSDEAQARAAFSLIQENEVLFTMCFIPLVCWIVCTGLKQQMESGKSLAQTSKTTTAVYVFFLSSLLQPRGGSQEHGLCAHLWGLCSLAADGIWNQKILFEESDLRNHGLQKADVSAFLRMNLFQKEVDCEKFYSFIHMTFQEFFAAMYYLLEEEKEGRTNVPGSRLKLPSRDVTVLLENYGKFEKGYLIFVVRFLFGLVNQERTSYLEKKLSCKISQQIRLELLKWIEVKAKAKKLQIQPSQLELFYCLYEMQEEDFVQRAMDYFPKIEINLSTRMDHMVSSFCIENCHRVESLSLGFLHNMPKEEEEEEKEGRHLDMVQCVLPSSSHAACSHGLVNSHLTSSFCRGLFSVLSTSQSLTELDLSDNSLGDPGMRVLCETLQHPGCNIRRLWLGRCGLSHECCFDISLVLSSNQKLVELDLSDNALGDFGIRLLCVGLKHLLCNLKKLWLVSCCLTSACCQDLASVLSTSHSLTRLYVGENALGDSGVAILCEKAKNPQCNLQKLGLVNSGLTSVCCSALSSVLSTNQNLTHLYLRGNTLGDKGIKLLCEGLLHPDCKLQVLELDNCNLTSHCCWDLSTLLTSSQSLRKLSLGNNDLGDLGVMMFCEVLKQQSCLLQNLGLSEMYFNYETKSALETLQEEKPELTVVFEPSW

Work on `Nc1nc(OCCO)c2ccc(-c3ccn[nH]3)cc2n1` [Example 4, 2-((2-amino-7-(1H-pyrazol-3-yl)quinazolin-4-yl)oxy)ethan-1-ol] yielded a TLR7 agonist activity (human TLR7) of under 50% and an EC50 (NLRP3) of 6.54 µM.
